In patent US7235674B2, “Substituted coumarins and quinolines and analogs as activators of caspases and inducers of apoptosis and the use thereof” (Cytovia, Inc., priority 2001, dated 2007):

Experiments:
[1] = system: Human breast cancer cell line ZR-75-1; assay: Caspase cascade activation assay (N-(Ac-DEVD)-N'-ethoxycarbonyl-R110 fluorogenic substrate) in ZR-75-1 cells; format: cell-based; conditions: ZR-75-1 cells, 24 h incubation; for EC50: Homo sapiens, caspase cascade activation potency; for Caspase activity (Ratio) ZR-75-1: ratio of net RFU of test compound to control, 3 h substrate reading
Protocol: (§1) Human breast cancer cell lines T-47D and ZR-75-1 were grown according to media component mixtures designated by American Type Culture Collection +10% FCS (Invitrogen Corporation), in a 5% CO2 −95% humidity incubator at 37° C. T-47D and ZR-75-1 cells were maintained at a cell density between 30 and 80% confluency at a cell density of 0.1 to 0.6×10^6 cells/mL. Cells were harvested at 600×g and resuspended at 0.65×10^6 cells/mL into appropriate media +10% FCS. An aliquot of 45 μl of cells was added to a well of a 96-well microtiter plate containing 5 μl of a 10% DMSO in RPMI-1640 media solution containing 0.16 to 10 μM of 3-cyano-7-methoxy-4-(3-bromo-4,5-dimethoxyphenyl)-2-oxo-2H-chromene (Example 1) or other test compound (0.016 to 1 μM final). An aliquot of 45 μl of cells was added to a well of a 96-well microtiter plate containing 5 μl of a 10% DMSO in RPMI-1640 media solution without test compound as the control sample. The samples were mixed by agitation and then incubated at 37° C. for 24 h in a 5% CO2 −95% humidity incubator. After incubation, the samples were removed from the incubator and 50 μl of a solution containing 20 μM of N-(Ac-DEVD)-N′-ethoxycarbonyl-R110 fluorogenic substrate (SEQ ID NO:1) (Cytovia, Inc.; WO99/18856), 20% sucrose (Sigma), 20 mM DTT (Sigma), 200 mM NaCl (Sigma), 40 mM Na PIPES buffer pH 7.2 (Sigma), and 500 μg/ml lysolecithin (Calbiochem) was added. The samples were mixed by agitation and incubated at room temperature. Using a fluorescent plate reader (Model 1420 Wallac Instruments), an initial reading (T=0) was made approximately 1-2 min after addition of the substrate solution, employing excitation at 485 nm and emission at 530 nm, to determine the background fluorescence of the control sample. After the 3 h incubation, the samples were read for fluorescence as above (T=3 h).
(§2) The Relative Fluorescence Unit values (RFU) were used to calculate the sample readings as follows: RFU(T=3 h)−Control RFU(T=0)=Net RFU(T=3 h)
(§3) The activity of caspase cascade activation was determined by the ratio of the net RFU value for 3-cyano-7-methoxy-4-(3-bromo-4,5-dimethoxy-phenyl)-2-oxo-2H-chromene, or other test compound, to that of control samples. The EC50 (nM) was determined by a sigmoidal dose-response calculation (Prism 2.0, GraphPad Software Inc.).

[2] = system: Human breast cancer cell line T-47D; assay: Caspase cascade activation assay (N-(Ac-DEVD)-N'-ethoxycarbonyl-R110 fluorogenic substrate) in T-47D cells; format: cell-based; conditions: T-47D cells, 24 h incubation; for EC50: Homo sapiens, T47D; for Caspase activity (Ratio) T-47D: ratio of net RFU of test compound to control, 3 h substrate reading
Protocol: as §1, §2, §3

[3] = caspase cascade activation potency

Row | EC50 [1] [nM] | EC50 [2, 3] [nM] | EC50 (nM) T-47D [2, 3] | SMILES | Caspase activity (Ratio) ZR-75-1 [1] | Caspase activity (Ratio) T-47D [2]
1 | 20 | > 100 |  | COc1cc(OC)cc(-c2c(C#N)c(=O)oc3c2ccc2c3ccn2C)c1 [Example 39, 3-Cyano-4-(3,5-dimethoxy-phenyl)-7-methyl-2-oxo-2H-pyrrolo[2,3-h]chromene] | 5.2 | 1.9
2 | 24 | > 100 |  | COc1cc(-c2c(C#N)c(=O)oc3c2ccc2c3ccn2C)cc2c1OCO2 [Example 40, 3-Cyano-4-(3-methoxy-4,5-methylenedioxyphenyl)-7-methyl-2-oxo-2H-pyrrolo[2,3-h]chromene] | 4.9 | 1.7
3 | 405 | 585 |  | COc1ccc(OC)c(C2=c3ccc4c(c3OC(=O)C2C#N)C=CN=4)c1 (stereo not shown) [Example 24, 3-Cyano-4-(2,5-dimethoxyphenyl)-2-oxo-2H-pyrrolo[2,3-h]chromene] | 7.1 | 4.5
4 | 97 | 257 |  | COc1ccc2c(-c3cc(Br)c(OC)c(OC)c3)c(C#N)c(=O)oc2c1 [Example 1, 3-Cyano-7-methoxy-4-(3-bromo-4,5-dimethoxyphenyl)-2-oxo-2H-chromene] | 4.2 | 6.2
5 | 356 | 1090 |  | CNc1ccc2c(-c3cc(Br)c(OC)c(OC)c3)c(C#N)c(=O)oc2c1 [Example 25, 4-(3-Bromo-4,5-dimethoxy-phenyl)-3-cyano-7-methylamino-2-oxo-2H-chromene] | 6.1 | 4.9
6 | 2770 |  | Inactive | COc1cc(-c2c(C#N)c(=N)oc3cc(N)ccc23)cc(Br)c1OC [Example 26, 7-Amino-4-(3-bromo-4,5-dimethoxy-phenyl)-3-cyano-2-imino-2H-chromene] | 8.8 | 1.9
7 | 11 | 44 |  | COc1cc(OC)cc(-c2c(C#N)c(=O)oc3cc(OC)ccc23)c1 [Example 2, 3-Cyano-7-methoxy-4-(3,5-dimethoxyphenyl)-2-oxo-2H-chromene] | 5.4 | 4.1
